According to patent US8735584B2 (Merck Patent GmbH, priority 2008, dated 2014):

Key:
Format in all cases: biochemical
RSK1 = biological target: T1, RSK1 (Homo sapiens, UniProt Q15418); experiment: Desktop Profiler kinase panel, RSK1; conditions: 10 micromolar concentration of the compound; read-out: Percent Inhibition RSK1
T1 construct: purchased Caliper Life Sciences
Procedure: (§1) The Aurora assays described here are performed on two Caliper Life Sciences systems: the LC3000 and the Desktop Profiler. These provide data on enzyme activity via measurement of the relative amounts of phosphorylated or unphosphorylated fluorescently labelled substrate peptide at the end of an enzymatic reaction. These different states of peptide are resolved by applying a potential difference across the sample. The presence of the charged phosphate group on the product (as opposed to the substrate) causes a different peptide mobility between the two peptides. This is visualized by excitation of the fluorescent label on the substrate and product peptides and represented as peaks within the analysis software.
(§2) The Desktop Profiler utilizes the same principle as the LC3000 for calculating percentage conversion of a substrate to product. Caliper Life Sciences provides proprietary flash frozen pre-made 384 well plates containing selected kinases. Each column in the 384 well plate contains a particular selected kinase. A second plate, the ‘substrate plate’ contains a mix of fluorescently labeled peptide substrate and ATP. These are arranged in columns so that transfer for substrate plate to enzyme plate provides the correct enzyme with the correct substrate/ATP concentration. Compounds are added to a thawed enzyme plate in the desired format, in single concentrations. Reactions are initiated by transfer of the substrate/ATP mix from the substrate plate. The enzyme plate is incubated for 90 mins at 25 C. The reaction is stopped by addition of 70 ul of Stop Buffer (100 mM HEPES pH 7.5, 0.015% Brij-35, 10 mM EDTA (Sigma, E7889)).
(§3) Reading of the plate in the Profiler is identical to the LC3000, and the ratio between substrate and product peaks provides the activity of the enzyme in that well. This is best represented by a plate heat map which colors each well by percent inhibition as compared to positive and negative controls (no inhibitors and no ATP respectively).
(§4) In the following Tables 3a-4-b, which show the results of the desktop profiler measurements, “+” means 50-70% inhibition, “++” means 70-90% inhibition, and “+++” means >90% inhibition. The enzymes tested for profiling were ABL, AKT1, AKT2, AurA, CHK1, CHK2, CK1d, Erk1, Erk2, FYN, GSK3b, INSR, LCK, LYN, MAPKAPK2, MET, MSK1, p38a, PKA, PKCz, PKD2, PRAK, RSK1 and SRC.

CK1d = biological target: T2, CK1d (Homo sapiens, UniProt P48730); experiment: Desktop Profiler kinase panel, CK1d; conditions: 10 micromolar concentration of the compound; read-out: Percent Inhibition CK1d
T2 construct: purchased Caliper Life Sciences
T2 sequence (P48730 whole entry): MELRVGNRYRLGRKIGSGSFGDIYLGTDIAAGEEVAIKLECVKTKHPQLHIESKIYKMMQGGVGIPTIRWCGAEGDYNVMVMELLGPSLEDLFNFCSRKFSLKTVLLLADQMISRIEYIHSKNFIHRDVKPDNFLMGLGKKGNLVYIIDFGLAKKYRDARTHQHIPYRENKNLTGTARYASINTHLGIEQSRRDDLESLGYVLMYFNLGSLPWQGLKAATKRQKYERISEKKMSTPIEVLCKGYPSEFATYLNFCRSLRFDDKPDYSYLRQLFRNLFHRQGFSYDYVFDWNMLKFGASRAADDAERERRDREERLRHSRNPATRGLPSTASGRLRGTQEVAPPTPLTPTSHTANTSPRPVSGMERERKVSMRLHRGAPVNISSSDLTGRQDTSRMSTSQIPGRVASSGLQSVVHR
Procedure: as §1, §2, §3, §4

SRC = biological target: T3, SRC (Homo sapiens, UniProt P12931); experiment: Desktop Profiler kinase panel, SRC; conditions: 10 micromolar concentration of the compound; read-out: Percent Inhibition SRC
T3 construct: purchased Caliper Life Sciences
T3 sequence (P12931 whole entry, species assumed): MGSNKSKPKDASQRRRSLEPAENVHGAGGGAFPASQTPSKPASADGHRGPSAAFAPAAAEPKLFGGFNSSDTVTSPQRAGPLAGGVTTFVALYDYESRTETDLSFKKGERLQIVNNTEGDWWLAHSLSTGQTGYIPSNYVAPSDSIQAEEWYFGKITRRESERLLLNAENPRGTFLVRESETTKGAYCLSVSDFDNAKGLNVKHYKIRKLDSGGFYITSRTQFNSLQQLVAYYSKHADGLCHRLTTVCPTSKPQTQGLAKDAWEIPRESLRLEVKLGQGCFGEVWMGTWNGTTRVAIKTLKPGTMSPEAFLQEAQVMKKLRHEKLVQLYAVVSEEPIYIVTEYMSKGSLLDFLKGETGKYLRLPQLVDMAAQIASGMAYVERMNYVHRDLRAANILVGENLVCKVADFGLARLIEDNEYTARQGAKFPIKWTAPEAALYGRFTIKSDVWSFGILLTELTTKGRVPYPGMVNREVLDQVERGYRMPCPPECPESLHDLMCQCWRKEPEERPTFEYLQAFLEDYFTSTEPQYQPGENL
Procedure: as §1, §2, §3, §4

ABL = biological target: T4, ABL (Homo sapiens, UniProt P00519); experiment: Desktop Profiler kinase panel, ABL; conditions: 10 micromolar concentration of the compound; read-out: Percent Inhibition ABL
T4 construct: purchased Caliper Life Sciences
T4 sequence (P00519 whole entry, species assumed): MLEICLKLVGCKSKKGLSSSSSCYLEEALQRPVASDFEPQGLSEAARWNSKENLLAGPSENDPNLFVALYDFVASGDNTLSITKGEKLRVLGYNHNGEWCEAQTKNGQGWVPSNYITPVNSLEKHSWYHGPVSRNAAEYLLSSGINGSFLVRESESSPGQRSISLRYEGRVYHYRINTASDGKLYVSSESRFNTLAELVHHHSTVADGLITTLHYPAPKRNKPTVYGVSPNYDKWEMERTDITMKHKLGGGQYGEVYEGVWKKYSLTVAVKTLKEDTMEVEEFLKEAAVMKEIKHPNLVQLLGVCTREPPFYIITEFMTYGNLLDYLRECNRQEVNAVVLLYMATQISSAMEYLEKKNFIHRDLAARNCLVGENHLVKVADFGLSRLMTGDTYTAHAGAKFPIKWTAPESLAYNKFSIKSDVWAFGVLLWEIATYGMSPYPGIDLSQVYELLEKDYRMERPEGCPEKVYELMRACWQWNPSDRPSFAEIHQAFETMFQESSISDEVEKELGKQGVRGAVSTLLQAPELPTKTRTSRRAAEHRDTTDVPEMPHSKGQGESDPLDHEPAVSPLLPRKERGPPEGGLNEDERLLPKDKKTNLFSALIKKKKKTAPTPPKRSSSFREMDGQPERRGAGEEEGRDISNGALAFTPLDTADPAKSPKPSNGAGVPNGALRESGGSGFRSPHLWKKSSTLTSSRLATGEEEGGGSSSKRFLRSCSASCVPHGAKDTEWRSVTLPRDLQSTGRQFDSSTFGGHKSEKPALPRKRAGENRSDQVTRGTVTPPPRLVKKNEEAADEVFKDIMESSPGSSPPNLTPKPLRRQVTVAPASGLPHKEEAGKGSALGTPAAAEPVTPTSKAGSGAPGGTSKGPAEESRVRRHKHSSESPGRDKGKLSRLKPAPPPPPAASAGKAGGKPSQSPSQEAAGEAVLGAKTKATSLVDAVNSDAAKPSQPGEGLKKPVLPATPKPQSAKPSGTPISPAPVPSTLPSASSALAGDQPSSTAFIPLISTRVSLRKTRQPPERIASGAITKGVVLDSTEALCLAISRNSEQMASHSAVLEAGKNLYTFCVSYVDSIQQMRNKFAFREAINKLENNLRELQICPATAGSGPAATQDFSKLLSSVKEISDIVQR
Procedure: as §1, §2, §3, §4

PKD2 = biological target: T5, PKD2 (Homo sapiens, UniProt Q9BZL6); experiment: Desktop Profiler kinase panel, PKD2; conditions: 10 micromolar concentration of the compound; read-out: Percent Inhibition PKD2
T5 construct: purchased Caliper Life Sciences
T5 sequence (Q9BZL6 1-878): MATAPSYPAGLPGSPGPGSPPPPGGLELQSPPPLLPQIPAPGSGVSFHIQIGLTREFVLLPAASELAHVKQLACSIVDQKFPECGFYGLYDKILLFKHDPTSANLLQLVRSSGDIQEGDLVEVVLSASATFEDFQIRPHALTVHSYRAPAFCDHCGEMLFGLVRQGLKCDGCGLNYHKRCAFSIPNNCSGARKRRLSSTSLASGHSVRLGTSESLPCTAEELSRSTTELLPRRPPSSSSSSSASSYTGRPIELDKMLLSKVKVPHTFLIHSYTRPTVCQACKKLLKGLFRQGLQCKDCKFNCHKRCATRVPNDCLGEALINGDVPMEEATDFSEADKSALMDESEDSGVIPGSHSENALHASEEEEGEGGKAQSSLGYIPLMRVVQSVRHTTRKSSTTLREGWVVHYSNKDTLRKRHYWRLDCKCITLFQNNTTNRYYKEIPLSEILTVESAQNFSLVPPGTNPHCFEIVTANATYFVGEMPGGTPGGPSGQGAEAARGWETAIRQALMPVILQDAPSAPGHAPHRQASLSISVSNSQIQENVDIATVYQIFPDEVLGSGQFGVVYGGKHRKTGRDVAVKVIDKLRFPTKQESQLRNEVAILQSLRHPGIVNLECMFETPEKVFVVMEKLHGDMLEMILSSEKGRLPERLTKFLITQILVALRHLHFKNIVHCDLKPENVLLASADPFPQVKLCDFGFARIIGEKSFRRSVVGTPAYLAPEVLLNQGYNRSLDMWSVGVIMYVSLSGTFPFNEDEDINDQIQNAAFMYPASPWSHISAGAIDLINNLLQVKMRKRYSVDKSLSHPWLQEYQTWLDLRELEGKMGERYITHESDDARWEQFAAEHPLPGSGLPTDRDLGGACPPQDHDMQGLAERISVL
Procedure: as §1, §2, §3, §4

PRAK = biological target: T6, PRAK (Homo sapiens, UniProt Q8IW41); experiment: Desktop Profiler kinase panel, PRAK; conditions: 10 micromolar concentration of the compound; read-out: Percent Inhibition PRAK
T6 construct: purchased Caliper Life Sciences
T6 sequence (Q8IW41 1-473): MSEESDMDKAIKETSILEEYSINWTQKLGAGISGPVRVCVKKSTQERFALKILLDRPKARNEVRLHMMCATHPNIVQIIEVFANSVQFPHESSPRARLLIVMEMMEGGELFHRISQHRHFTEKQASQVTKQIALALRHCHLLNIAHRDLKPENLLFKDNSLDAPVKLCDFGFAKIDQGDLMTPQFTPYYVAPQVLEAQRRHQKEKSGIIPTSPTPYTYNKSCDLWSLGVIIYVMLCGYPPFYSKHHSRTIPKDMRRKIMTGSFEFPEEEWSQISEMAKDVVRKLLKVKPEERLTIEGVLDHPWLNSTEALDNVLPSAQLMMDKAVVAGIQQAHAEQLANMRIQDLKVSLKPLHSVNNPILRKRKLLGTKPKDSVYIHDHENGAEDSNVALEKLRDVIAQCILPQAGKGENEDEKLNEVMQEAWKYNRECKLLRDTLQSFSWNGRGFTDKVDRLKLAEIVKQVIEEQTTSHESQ
Procedure: as §1, §2
as §3, with “respectively). […]” for “respectively).”

CHK2 = biological target: T7, CHK2 (Homo sapiens, UniProt O96017); experiment: Desktop Profiler kinase panel, CHK2; conditions: 10 micromolar concentration of the compound; read-out: Percent Inhibition CHK2
T7 construct: purchased Caliper Life Sciences
T7 sequence (O96017 whole entry, species assumed): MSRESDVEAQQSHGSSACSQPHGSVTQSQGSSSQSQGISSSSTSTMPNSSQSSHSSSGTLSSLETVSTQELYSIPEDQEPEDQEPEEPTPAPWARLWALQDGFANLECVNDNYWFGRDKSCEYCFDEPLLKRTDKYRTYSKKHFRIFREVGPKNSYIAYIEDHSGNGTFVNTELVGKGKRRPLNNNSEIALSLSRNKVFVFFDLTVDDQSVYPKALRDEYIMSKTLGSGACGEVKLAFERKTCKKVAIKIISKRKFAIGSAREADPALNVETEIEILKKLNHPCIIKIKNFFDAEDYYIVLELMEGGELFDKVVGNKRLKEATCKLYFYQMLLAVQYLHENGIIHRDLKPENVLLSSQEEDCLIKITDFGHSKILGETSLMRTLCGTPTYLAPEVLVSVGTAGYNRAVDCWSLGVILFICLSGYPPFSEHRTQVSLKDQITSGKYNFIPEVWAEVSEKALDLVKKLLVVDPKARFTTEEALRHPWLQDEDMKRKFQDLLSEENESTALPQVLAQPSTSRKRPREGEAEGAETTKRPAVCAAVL
Procedure: as §1, §2, §3, §4

LYN = biological target: T8, LYN (Homo sapiens, UniProt P07948); experiment: Desktop Profiler kinase panel, LYN; conditions: 10 micromolar concentration of the compound; read-out: Percent Inhibition LYN
T8 construct: purchased Caliper Life Sciences
T8 sequence (P07948 whole entry, species assumed): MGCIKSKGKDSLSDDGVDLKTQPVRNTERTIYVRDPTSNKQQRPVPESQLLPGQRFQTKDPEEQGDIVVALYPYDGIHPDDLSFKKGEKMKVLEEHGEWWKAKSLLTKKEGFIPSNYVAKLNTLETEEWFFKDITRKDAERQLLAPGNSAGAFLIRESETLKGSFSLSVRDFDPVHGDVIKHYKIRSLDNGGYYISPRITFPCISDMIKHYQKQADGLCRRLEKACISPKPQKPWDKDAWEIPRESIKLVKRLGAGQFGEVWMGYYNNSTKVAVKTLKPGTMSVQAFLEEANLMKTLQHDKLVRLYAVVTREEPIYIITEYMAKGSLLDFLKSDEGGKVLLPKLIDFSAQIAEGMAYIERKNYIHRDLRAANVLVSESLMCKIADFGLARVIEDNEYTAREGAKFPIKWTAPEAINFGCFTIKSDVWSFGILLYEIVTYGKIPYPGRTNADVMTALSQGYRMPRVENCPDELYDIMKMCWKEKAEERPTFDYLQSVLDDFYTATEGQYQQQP
Procedure: as §1, §2, §3, §4

T1 sequence (Q15418 whole entry, species assumed): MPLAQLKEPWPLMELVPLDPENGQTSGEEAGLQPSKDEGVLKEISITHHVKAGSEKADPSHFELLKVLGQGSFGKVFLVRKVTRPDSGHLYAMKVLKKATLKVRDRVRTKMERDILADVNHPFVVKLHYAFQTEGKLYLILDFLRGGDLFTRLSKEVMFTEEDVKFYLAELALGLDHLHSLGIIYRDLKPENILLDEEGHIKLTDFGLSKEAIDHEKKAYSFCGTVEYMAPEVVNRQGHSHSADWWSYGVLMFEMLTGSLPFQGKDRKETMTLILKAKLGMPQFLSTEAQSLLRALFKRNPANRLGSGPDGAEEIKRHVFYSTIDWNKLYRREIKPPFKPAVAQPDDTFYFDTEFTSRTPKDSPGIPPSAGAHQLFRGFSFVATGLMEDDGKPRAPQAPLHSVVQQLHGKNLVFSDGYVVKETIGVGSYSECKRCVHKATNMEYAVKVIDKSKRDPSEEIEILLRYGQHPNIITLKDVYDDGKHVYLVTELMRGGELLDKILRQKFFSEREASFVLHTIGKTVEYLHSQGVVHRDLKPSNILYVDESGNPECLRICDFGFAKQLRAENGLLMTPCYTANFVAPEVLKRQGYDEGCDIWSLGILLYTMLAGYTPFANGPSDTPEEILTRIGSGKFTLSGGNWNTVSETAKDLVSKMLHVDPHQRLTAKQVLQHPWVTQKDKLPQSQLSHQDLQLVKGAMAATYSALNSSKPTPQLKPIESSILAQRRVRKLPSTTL

inhibition at 10 µM (RSK1)	inhibition at 10 µM (CK1d)	inhibition at 10 µM (SRC)	inhibition at 10 µM (ABL)	inhibition at 10 µM (PKD2)	inhibition at 10 µM (PRAK)	inhibition at 10 µM (CHK2)	inhibition at 10 µM (LYN)	SMILES
50 to 70%	70 to 90%	70 to 90%	> 90%	> 90%	70 to 90%	50 to 70%	> 90%	O=c1[nH]c2ncccc2c2cc(Nc3cccc(F)c3)ccc12 [Example 31, 9-(3-Fluoro-phenylamino)-5H-benzo[c][1,8]naphthyridin-6-one]
70 to 90%	70 to 90%	> 90%	> 90%	> 90%	70 to 90%	70 to 90%	> 90%	CC(=O)Nc1ccc(Oc2ccc3c(=O)[nH]c4ncccc4c3c2)cc1 [Example 81, N-[4-(6-Oxo-5,6-dihydro-benzo[c][1,8]naphthyridin-9-yloxy)-phenyl]-acetamide]
50 to 70%	50 to 70%	50 to 70%	70 to 90%	50 to 70%	> 90%	50 to 70%	70 to 90%	NC(=O)c1ccc(Oc2ccc3c(=O)[nH]c4ncccc4c3c2)cc1 [Example 82]
